According to patent publication US10750743B2, “Pyridazinone herbicides” (E.I. DU PONT DE NEMOURS AND COMPANY, priority 2015, dated 2020):

Key:
[1] = test system: sedge, umbrella (small-flower umbrella sedge, Cyperus difformis); test: Test B flooded paddy test, visual rating; assay type: in vivo; conditions: Cyperus difformis, 360 h; Flood, 250 g ai/ha, applied to paddy water, rated after 13 to 15 d; read-out: Sedge, Umbrella plant response rating (0 to 100 scale, 0 is no effect, 100 is complete control)
In short: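 Plants at the 2-leaf stage were flooded to 3 cm above soil, and test compounds were applied directly into the paddy water, which was held at that depth throughout. After 13 to 15 d in a greenhouse, injury was rated visually against untreated controls on a 0–100 scale (0 no effect, 100 complete control).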

SMILES	pest or weed control at 250 g/ha [1] [%]	melting point [°C]
CC(=O)Oc1c(C)nn(C)c(=O)c1-c1c(C)ccc2cc(C)oc12 [Compound 11, 5-(acetyloxy)-4-(2,6-dimethyl-7-benzofuranyl)-2,6-dimethyl-3(2H)-pyridazinone]	0	93 to 96
Cn1nc(Cl)c(O)c(-c2nccc3ccccc23)c1=O [Compound 67, 6-chloro-5-hydroxy-4-(1-isoquinolinyl)-2-methyl-3(2H)-pyridazinone]	75	
Cc1ccc2sccc2c1-c1c(O)c(C)nn(C)c1=O [Compound 29, 5-hydroxy-2,6-dimethyl-4-(5-methylbenzo[b]thien-4-yl)-3(2H)-pyridazinone]	0	
Cc1nn(C)c(=O)c(-c2ccc(F)c3ccoc23)c1O [Compound 68, 4-(4-fluoro-7-benzofuranyl)-5-hydroxy-2,6-dimethyl-3(2H)-pyridazinone]	0	
COc1c(C)nn(C)c(=O)c1-c1ccc(F)c2ccoc12 [Compound 69, 4-(4-fluoro-7-benzofuranyl)-5-methoxy-2,6-dimethyl-3(2H)-pyridazinone]	0	
CCOC(=O)Oc1c(C)nn(C)c(=O)c1-c1c(C)ccc2sccc12 [Compound 30, 1,6-dihydro-1,3-dimethyl-5-(5-methylbenzo[b]thien-4-yl)-6-oxo-4-pyridazinyl ethyl carbonate]	0	103 to 107
Cc1cc2cccc(-c3c(O)c(C)nn(C)c3=O)c2o1 [Compound 12, 5-hydroxy-2,6-dimethyl-4-(2-methyl-7-benzofuranyl)-3(2H)-pyridazinone]	0	
Cc1cc2ccc(C)c(-c3c(O)c(C)nn(C)c3=O)c2o1 [Compound 10, 4-(2,6-dimethyl-7-benzofuranyl)-5-hydroxy-2,6-dimethyl-3(2H)-pyridazinone]	0	194 to 199
Cc1nn(C)c(=O)c(-c2cccc3snc(C)c23)c1O [Compound 25, 5-hydroxy-2,6-dimethyl-4-(3-methyl-1,2-benzisothiazol-4-yl)-3 (2H)-pyridazinone]	0	115 to 118
